In patent US11465990B2, “Heterocyclic antiestrogens” (SUN PHARMA ADVANCED RESEARCH COMPANY LIMITED, priority 2015, dated 2022):

Test system: MCF-7 cells
Assay: MCF-7 cell growth inhibition assay
Type: cell-based
Settings: MCF-7 cells plated in presence of estradiol (1 nM), five days incubation, Presto Blue viability; for % inhibition: at 1 μM; for inhibition at 1 µM: Homo sapiens, MCF7, 120 h
Procedure: MCF-7 Cell Growth Inhibition Assay
MCF-7 cells were plated in 96 well plate in the presence of estradiol (1 nM) and incubated overnight. After 24 hours test compound was added at various concentrations and incubated for five days. On the fifth day, cell viability was evaluated using Presto Blue Cell Viability Reagent. Percentage growth inhibition was calculated as follows: 100−[(O.D. of sample)*100/O.D. of vehicle control] wherein O.D. is optical density.

Compound	% inhibition [%]	inhibition at 1 µM [%]
3-(3-Methoxy phenyl)-4-methyl-2-{4-[(Z)-3-((R)-3-methyl pyrrolidin-1-yl)propenyl]phenyl}-2H-chromen-6-ol [Compound 28]	55.9	–
CNC/C=C\c1ccc(C2Oc3ccc(O)cc3C(C)=C2c2cccc(O)c2)cc1 (stereo not shown) [Compound 1]	–	64.1
CC1=C(c2cccc(O)c2)C(c2ccc(/C=C\CN(C)C)cc2)Oc2ccc(O)cc21 (stereo not shown) [Compound 2]	–	62.2
CCCCCCCCCCCCNC/C=C\c1ccc(C2Oc3ccc(O)cc3C(C)=C2c2cccc(O)c2)cc1 (stereo not shown) [Compound 3]	–	68.5
CCCCCCCCCCCCNC/C=C/c1ccc(C2Oc3ccc(O)cc3C(C)=C2c2cccc(O)c2)cc1 (stereo not shown) [Compound 4]	–	56.2
CC1=C(c2cccc(O)c2)C(c2ccc(/C=C\CNCCN(C)C)cc2)Oc2ccc(O)cc21 (stereo not shown) [Compound 6]	–	55.5
CC1=C(c2cccc(O)c2)C(c2ccc(/C=C\CNCCCCCCCCCSCCCC(F)(F)C(F)(F)F)cc2)Oc2ccc(O)cc21 (stereo not shown) [Compound 7, 3-(3-hydroxyphenyl)-4-methyl-2-(4-{(Z)-3-[9-(4,4,5,5,5-pentafluoropentylsulfanyl)nonylamino]propenyl}phenyl)-2H-chromen-6-ol]	–	85.3
CC1=C(c2cccc(O)c2)C(c2ccc(/C=C/CNCCCCCCCCCSCCCC(F)(F)C(F)(F)F)cc2)Oc2ccc(O)cc21 (stereo not shown) [Compound 8]	–	59.1
CC1=C(c2cccc(O)c2)C(c2ccc(/C=C\CN3CC[C@@H](C)C3)cc2)Oc2ccc(O)cc21 (stereo partly shown) [Compound 9]	–	79.8
CC1=C(c2cccc(O)c2)C(c2ccc(/C=C/CN3CC[C@@H](C)C3)cc2)Oc2ccc(O)cc21 (stereo partly shown) [Compound 10]	–	52.3
CC1=C(c2cccc(O)c2)C(c2ccc(/C=C\CN3CCCCC3)cc2)Oc2ccc(O)cc21 (stereo not shown) [Compound 11, 3-(3-hydroxyphenyl)-4-methyl-2-[4-((Z)-3-piperidin-1-ylpropenyl)phenyl]-2H-chromen-6-ol]	–	65.1
CC1=C(c2cccc(O)c2)C(c2ccc(/C=C/CN3CCCCC3)cc2)Oc2ccc(O)cc21 (stereo not shown) [Compound 12, 3-(3-hydroxyphenyl)-4-methyl-2-[4-((E)-3-piperidin-1-ylpropenyl)phenyl]-2H-chromen-6-ol]	–	57.6
CC1=C(c2cccc(O)c2)C(c2ccc(/C=C\CN3CCOCC3)cc2)Oc2ccc(O)cc21 (stereo not shown) [Compound 13]	–	5.5
CC1=C(c2cccc(O)c2)C(c2ccc(/C=C\CN3CCN(C)CC3)cc2)Oc2ccc(O)cc21 (stereo not shown) [Compound 14]	–	79.1
CC1=C(c2cccc(O)c2)C(c2ccc(/C=C/CN3CCN(C)CC3)cc2)Oc2ccc(O)cc21 (stereo not shown) [Compound 15]	–	52.2
CC1=C(c2cccc(O)c2)C(c2ccc(/C=C\CN3CCC[C@@H](N)C3)cc2)Oc2ccc(O)cc21 (stereo partly shown) [Compound 16]	–	56.7
CC1=C(c2cccc(O)c2)C(c2ccc(/C=C\CN3CCN(CCO)CC3)cc2)Oc2ccc(O)cc21 (stereo not shown) [Compound 17]	–	43.4
CC1=C(c2cccc(OC(=O)C(C)(C)C)c2)C(c2ccc(/C=C\CN3CC[C@@H](C)C3)cc2)Oc2ccc(OC(=O)C(C)(C)C)cc21 (stereo partly drawn) [Compound 19, 2,2-Dimethylpropionic Acid 3-[3-(2,2-dimethylpropionyloxy)phenyl]-4-methyl-2-{4-[(Z)-3-((R)-3-methylpyrrolidin-1-yl)propenyl]phenyl}-2H-chromen-6-yl ester]	–	29.4
COc1cccc(C2=C(C)c3cc(OC)ccc3OC2c2ccc(/C=C\CN3CC[C@@H](C)C3)cc2)c1 (stereo partly drawn) [Compound 20, (R)-1-((Z)-3-{4-[6-methoxy-3-(3-methoxyphenyl)-4-methyl-2H-chromen-2-yl]phenyl}allyl)-3-methylpyrrolidine]	–	15.4
CNCC#Cc1ccc(C2Oc3ccc(O)cc3C(C)=C2c2cccc(O)c2)cc1 (stereo not shown) [Compound 21]	–	60.1
CCCCCCCCCCCCNCC#Cc1ccc(C2Oc3ccc(O)cc3C(C)=C2c2cccc(O)c2)cc1 (stereo not shown) [Compound 22]	–	29

Compound	% inhibition [%]	inhibition at 1 µM [%]
CNC/C(C)=C/CCC=C(C)C [Compound 23]	–	36.8
CC1=C(c2cccc(O)c2)C(c2ccc(C#CCN3CC[C@@H](C)C3)cc2)Oc2ccc(O)cc21 (stereo partly shown) [Compound 24]	–	62.5
CC1=C(c2cccc(O)c2)C(c2ccc(C#CCN3CCCCC3)cc2)Oc2ccc(O)cc21 (stereo not shown) [Compound 25, 3-(3-hydroxyphenyl)-4-methyl-2-[4-(3-piperidin-1-yl-prop-1-ynyl)phenyl]-2H-chromen-6-ol]	–	42.5
CC1=C(c2cccc(O)c2)C(c2ccc(C#CCN3CCN(C)CC3)cc2)Oc2ccc(O)cc21 (stereo not shown) [Compound 26]	–	55.2
CC1=C(c2cccc(O)c2)C(c2ccc(C#CCCN3CCN(C)CC3)cc2)Oc2ccc(O)cc21 (stereo not shown) [Compound 27]	–	28.8
CCCNC1CCN(C)C1 (stereo not shown) [Compound 31]	–	19.9
CCCNC1CCN(C)C1 (stereo not shown) [Compound 32]	27.4	–
CC1=C(c2cccc(O)c2)C(c2ccc(/C=C/CN3CCSCC3)cc2)Oc2ccc(O)cc21 (stereo not shown) [Compound 33]	–	22.8
CC1=C(c2cccc(O)c2)C(c2ccc(/C=C\CN3CCC(C)CC3)cc2)Oc2ccc(O)cc21 (stereo not shown) [Compound 34]	–	35
CCCCCCCCCNC/C=C/c1ccc(C2Oc3ccc(O)cc3C(C)=C2c2cccc(O)c2)cc1 (stereo not shown) [Compound 35]	–	68.6
CCCCCCCCCNC/C=C\c1ccc(C2Oc3ccc(O)cc3C(C)=C2c2cccc(O)c2)cc1 (stereo not shown) [Compound 37]	57.2	–
CC1=C(c2cccc(O)c2)C(c2ccc(/C=C\CNCCCCCCCCCF)cc2)Oc2ccc(O)cc21 (stereo not shown) [Compound 38]	–	49.9
CC1=C(c2cccc(O)c2)C(c2ccc(/C=C/CNCCCCCCCCCF)cc2)Oc2ccc(O)cc21 (stereo not shown) [Compound 39, 2-{4-[(E)-3-(9-Fluorononylamino)propenyl]phenyl}-3-(3-hydroxyphenyl)-4-methyl-2H-chromen-6-ol]	–	89.7
CC1=C(c2cccc(O)c2)C(c2ccc(/C=C\C(C)N3CCCC3)cc2)Oc2ccc(O)cc21 (stereo not shown) [Compound 40]	–	29.3
CC1=C(c2cccc(O)c2)C(c2ccc(/C=C/CNCCCCCCCCCCF)cc2)Oc2ccc(O)cc21 (stereo not shown) [Compound 41]	–	77.6
CC1=C(c2cccc(O)c2)C(c2ccc(C#CCNCCCCCCCCCF)cc2)Oc2ccc(O)cc21 (stereo not shown) [Compound 42]	–	62
CC1=C(c2cccc(O)c2)C(c2ccc(/C=C\CNCCCCCCCCCCF)cc2)Oc2ccc(O)cc21 (stereo not shown) [Compound 43]	–	47.9
CC1=C(c2cccc(O)c2)C(c2ccc(/C=C/CNCCCCCCCCC(F)F)cc2)Oc2ccc(O)cc21 (stereo not shown) [Compound 44]	–	67.2
CC1=C(c2cccc(O)c2)C(c2ccc(/C=C/CN(C)CCCCCCCCCF)cc2)Oc2ccc(O)cc21 (stereo not shown) [Compound 45]	71.4	–
CC1=C(c2cccc(O)c2)C(c2ccc(/C=C\CNCCCCCCCCC(F)F)cc2)Oc2ccc(O)cc21 (stereo not shown) [Compound 46]	–	88.6
COc1cccc(C2=C(C)c3cc(O)ccc3OC2c2ccc(/C=C/CNCCCCCCCCCF)cc2)c1 (stereo not shown) [Compound 47]	–	67.4

Compound	% inhibition [%]	inhibition at 1 µM [%]
CC1=C(c2cccc(O)c2)C(c2ccc(/C=C\CN(C)CCCCCCCCCF)cc2)Oc2ccc(O)cc21 (stereo not shown) [Compound 48]	–	58.9
CC1=C(c2cccc(O)c2)C(c2ccc(/C=C/CNCCCCCCCCF)cc2)Oc2ccc(O)cc21 (stereo not shown) [Compound 49]	–	67.3
CC1=C(c2cccc(O)c2)C(c2ccc(/C=C\CNCCCCCCCCF)cc2)Oc2ccc(O)cc21 (stereo not shown) [Compound 50]	–	57.3
CC1=C(c2cccc(O)c2)C(c2ccc(C#CCNCCCCCCCCF)cc2)Oc2ccc(O)cc21 (stereo not shown) [Compound 51]	–	61.1
CC1=C(c2cccc(O)c2)C(c2ccc(C#CCNCCCCCCCCCCF)cc2)Oc2ccc(O)cc21 (stereo not shown) [Compound 52]	–	74.3
CC1=C(c2cccc(O)c2)C(c2ccc(C#CCN(C)CCCCCCCCCF)cc2)Oc2ccc(O)cc21 (stereo not shown) [Compound 53]	–	38.6
CC1=C(c2cccc(O)c2)C(c2ccc(C#CCNCCCCCCCCC(F)F)cc2)Oc2ccc(O)cc21 (stereo not shown) [Compound 54]	–	67.5
CC1=C(c2cccc(O)c2)C(c2ccc(/C=C\CN3CC[C@@H](CF)C3)cc2)Oc2ccc(O)cc21 (stereo partly shown) [Compound 55]	67.1	–
CC1=C(c2cccc(O)c2)C(c2ccc(C#CCN3CCC(F)(F)C3)cc2)Oc2ccc(O)cc21 (stereo not shown) [Compound 56]	–	44.9
CC1=C(c2cccc(O)c2)C(c2ccc(/C=C\CN3CCC(F)(F)C3)cc2)Oc2ccc(O)cc21 (stereo not shown) [Compound 57]	–	24.3
CC1=C(c2cccc(O)c2)C(c2ccc(/C=C/CN3CCC(F)(F)C3)cc2)Oc2ccc(O)cc21 (stereo not shown) [Compound 58]	–	37.9
CC1=C(c2cccc(O)c2)C(c2ccc(/C=C/CN3CC[C@@H](CF)C3)cc2)Oc2ccc(O)cc21 (stereo partly shown) [Compound 59]	–	73.5
CC1=C(c2cccc(O)c2)C(c2ccc(/C=C/CN3CC[C@@H](CO)C3)cc2)Oc2ccc(O)cc21 (stereo partly shown) [Compound 60]	–	55
CC1=C(c2cccc(O)c2)C(c2ccc(C#CCNCCCCOCCCCF)cc2)Oc2ccc(O)cc21 (stereo not shown) [Compound 61]	–	39.3
CC1=C(c2cccc(O)c2)C(c2ccc(/C=C\CNCCCCOCCCCF)cc2)Oc2ccc(O)cc21 (stereo not shown) [Compound 62]	–	53.1
CC1=C(c2cccc(O)c2)C(c2ccc(/C=C/CNCCCCOCCCCF)cc2)Oc2ccc(O)cc21 (stereo not shown) [Compound 63]	–	41.8
CC1=C(c2cccc(O)c2)C(c2ccc(C#CCN3CC[C@@H](CF)C3)cc2)Oc2ccc(O)cc21 (stereo partly shown) [Compound 64]	–	47.2
CC1=C(c2cccc(O)c2)C(c2ccc(/C=C/CN3CCC(C(F)(F)F)C3)cc2)Oc2ccc(O)cc21 (stereo not shown) [Compound 65]	–	55.4
CC1=C(c2cccc(O)c2)C(c2ccc(/C=C\CN3CCC(C(F)(F)F)C3)cc2)Oc2ccc(O)cc21 (stereo not shown) [Compound 66]	–	12.9
